Test results from patent publication US6734188B1, “Composition for treatment of constipation and irritable bowel syndrome” (priority 1999, dated 2004).

Experiments:
[1] = tested on: healthy, non-smoking volunteers; experiment: Gut transit time study with radio opaque markers, oral naloxone with or without oral codeine (Example 1); assay type: in vivo, human; conditions: for Gut transit time, Maximum / Gut transit time, Mean / Gut transit time, Median / Gut transit time, Minimum: codeine 30 mg bd
Procedure: The study consisted of four 10-day study periods, with at least two weeks between each, which were in a randomised order and the capsules being administered daily in a double blind manner. […] The capsules were administered twice a day (“bd”).
The study protocol was as follows: On day 0, subjects were given capsule B and on days 1 to 9, were given capsules A and B. On days 3 to 6, the subjects took transit markers; packaged in distinctly coloured capsules, each containing 20 different shaped radio opaque marker pellets (Dunn Clinical Nutrition). From day 7, the subjects' next two bowel motions were collected. A normal diet was adhered to throughout the study period and recorded on days 3 to 6.

[2] = tested on: patient with Irritable Bowel Syndrome; conditions: administered intermittently, similar dosage form to Example 3
[3] = tested on: male volunteers; experiment: Gut transit time study, fixed doses of naloxone with or without codeine (Example 2); assay type: in vivo, human; conditions: naloxone 5, 10 and 20 mg bd, Gelucire 53/10:42/12 95:5, Eudragit LS coated; with 30 mg bd codeine in second week
Procedure: In a further study, the procedure of Example 1 was substantially followed using Gelucire™ 53/10 & Gelucire™ 42/12 95:5 as the polyglycolised glyceride matrix.
The gut transit time was measured at the end of the first week. During the second week, each volunteer was also given 30 mg bd codeine and gut transit times measured again at the end of the second week.

[4] = tested on: patients with advanced cancer; conditions: patients with advanced cancer treated with an opioid analgesic; cited from earlier work
[5] = after parenteral administration; cited from earlier work
[6] = in vivo; cited from earlier work
[7] = 8 patients whose transit time was increased by codeine (n = 8), naloxone 10 mg bd
[8] = all patients (n = 12), oral capsules twice a day, naloxone 10 mg bd
[9] = all patients (n = 12), oral capsules twice a day, naloxone 10 mg bd (Gelucire 50/13:42/12 82.5:17.5, enteric coated)

Row | SMILES | Gut transit time, Maximum [1, 7] | Gut transit time, Mean [1, 7] | Gut transit time, Median [1, 7] | Gut transit time, Minimum [1, 7] | Gut transit time, Maximum [1, 8] | Gut transit time, Mean [1, 8] | Gut transit time, Median [1, 8] | Gut transit time, Minimum [1, 9] | Clinical outcome in irritable bowel syndrome [2] | Effect on gut transit time (in words) [3] | Laxative effect [4] | Plasma half-life [5] | Effect on gut transit time (in words) ([1]; Example 1, naloxone 10 mg bd alone or with codeine 30 mg bd) | Crossing of the blood-brain barrier [6]
1 | COc1ccc2c3c1O[C@H]1[C@@H](O)C=C[C@H]4[C@@H](C2)N(C)CC[C@@]341 [Codeine, codeine phosphate] | 84.00 h | 66.17 h | 67.85 h | 50.42 h | 84.00 h | 57.27 h | 56.76 h | 25.22 h |  |  |  |  |  | 
2 | C=CCN1CC[C@]23c4c5ccc(O)c4O[C@H]2C(=O)CC[C@@]3(O)[C@H]1C5 [Naloxone, 17-allyl-6-deoxy-7,8-dihydro-14-hydroxy-6-oxonormorphine] | 63.91 h | 41.41 h | 37.95 h | 27.40 h | 63.91 h | 42.13 h | 38.85 h | 27.40 h | substantial clinical benefit | accelerate gut transit time | produce a laxative effect | about 1 h | reduced gut transit time | 
3 | C[N@+]1(CC2CC2)CC[C@]23c4c5ccc(O)c4O[C@H]2C(=O)CC[C@@]3(O)[C@H]1C5 [methylnaltrexone] |  |  |  |  |  |  |  |  |  |  |  |  |  | do not cross the blood-brain barrier to a significant extent
